A short description of assay [1]: In vivo localization capacities at 24 hr post injection in a mouse C6 intracerebral glioma model and the tumor; normal brain ratio was calculated. The class given is functional.
The nature of assay [2]: In vivo localization capacities at 6 hr post injection in a mouse C6 intracerebral glioma model and the tumor; normal brain ratio was calculated. The class given is functional.

In the case of `CCOCCOC(C)C1=C(C)c2cc3[nH]c(cc4[nH]c(cc5nc(cc1n2)C(C)=C5C(C)OCCOCC)c(C)c4CCC(=O)O)c(CCC(=O)O)c3C` (stereo not given), the Ratio in assay [1] is 25.1; in assay [2] it was 37.7.

`CCOC(C)C1=C(C)c2cc3[nH]c(cc4[nH]c(cc5nc(cc1n2)C(C)=C5C(C)OCC)c(C)c4CCC(=O)O)c(CCC(=O)O)c3C` (stereo not given): the Ratio in assay [1] is reported as 8.7; in assay [2], 17.5.

In the case of `CC1=C(C(C)SCC(=O)O)c2cc3nc(cc4[nH]c(cc5[nH]c(cc1n2)c(C)c5CCC(=O)O)c(CCC(=O)O)c4C)C(C(C)SCC(=O)O)=C3C` (stereo not given), the values for the Ratio in assay [1] and in assay [2] were 28.2 and 23, respectively.

In the case of `CCOCCOC(C)C1=C(C)c2cc3[nH]c(cc4[nH]c(cc5nc(cc1n2)C(C)=C5C(C)OCCOCC)c(C)c4CCC(=O)NCCN(C)C)c(CCC(=O)NCCN(C)C)c3C` (stereo not given), the Ratio in assay [1] was 8; in assay [2], 15.2.

With `CCOC(C)C1=C(C)c2cc3[nH]c(cc4[nH]c(cc5nc(cc1n2)C(C)=C5C(C)OCC)c(C)c4CCC(=O)NCCN(C)C)c(CCC(=O)NCCN(C)C)c3C` (stereo not given), the values for the Ratio in assay [1] and in assay [2] were 6.4 and 2.4, respectively.

Values taken from ChEMBL document CHEMBL1126231, “Synthesis and phototoxicity of a series of haematoporphyrin analogues” (1992).
